The values that follow come from PubChem BioAssay AID2060327 (Molecular Pharmacology Branch, DTP, NCI, 2025).

Several values for one entry are separate records, joined by “and”; a condition that tells them apart may be missing. Equal entries are not always repeated.

The test system of this test is PC-3 multi-cell spheroids, viability. The test can be described thus: Anticancer human tumor PC-3 cell line growth inhibition [IpAb].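 On all read-outs here: spheroids exposed to compounds for 7 days before readout.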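 On viability, T/C: 100% = DMSO vehicle control wells.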 To be noted: for viability, T/C: stronger effect = lower value. In outline:
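Multi-cell spheroids of 60% tumour cells, 25% HUVEC and 15% MSC in ultra-low-attachment U-bottom wells, treated with agents combined with ipatasertib or abemaciclib. Half-log ranges top out near clinical Cmax, or 10 microM when Cmax is unknown.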

[1] abbreviates: curve of first compound, second compound 0.1 µM.
[2] abbreviates: curve of first compound, second compound 0.316 µM.
Where [3] appears, read: curve of first compound, second compound 1 µM.
Where [4] appears, read: curve of first compound, second compound 3.16 µM.
Setting [5] is: curve of first compound, second compound 10 µM.
Setting [6] is: second compound 0.1 µM, first compound 0.0316 µM.
Where [7] appears, read: second compound 0.1 µM, first compound 0.1 µM.
Setting [8] is: second compound 0.316 µM, first compound 0.0316 µM.
[9] abbreviates: second compound 0.316 µM, first compound 0.1 µM.
Setting [10] is: second compound 1 µM, first compound 0.0316 µM.
Setting [11] is: second compound 1 µM, first compound 0.1 µM.
[12] abbreviates: second compound 3.16 µM, first compound 0.0316 µM.
Setting [13] is: second compound 3.16 µM, first compound 0.1 µM.
Where [14] appears, read: second compound 10 µM, first compound 0.0316 µM.
The mark [15] stands for this setting: second compound 10 µM, first compound 0.1 µM.
[16] abbreviates: second compound 0.1 µM, first compound 0.316 µM.
Setting [17] is: second compound 0.1 µM, first compound 1 µM.
The mark [18] stands for this setting: second compound 0.1 µM, first compound 3.16 µM.
The mark [19] stands for this setting: second compound 0.1 µM, first compound 10 µM.
Where [20] appears, read: second compound 0.316 µM, first compound 0.316 µM.
[21] abbreviates: second compound 0.316 µM, first compound 1 µM.
Where [22] appears, read: second compound 0.316 µM, first compound 3.16 µM.
Setting [23] is: second compound 0.316 µM, first compound 10 µM.
Where [24] appears, read: second compound 1 µM, first compound 0.316 µM.
Setting [25] is: second compound 1 µM, first compound 1 µM.
Setting [26] is: second compound 1 µM, first compound 3.16 µM.
The mark [27] stands for this setting: second compound 1 µM, first compound 10 µM.

With `C=CC(=O)N1CCN(c2nc(=O)n(-c3c(C)ccnc3C(C)C)c3nc(-c4c(O)cccc4F)c(F)cc23)C(C)C1` (stereo unspecified), the viability, T/C is 108% and 98.7% (compound 0.0316 µM); 100% and 108% (compound 0.1 µM); 90.2% and 99.7% (compound 0.316 µM); 110% and 112% (compound 1 µM); 122% (compound 3.16 µM); 79.6% and 119% (compound 10 µM). Besides, the half-inhibitory concentration (IC50) (curve of compound) was above 10000 nM.
Take `Cc1nc(NC(=O)N2CCCC2C(N)=O)sc1-c1ccnc(C(C)(C)C(F)(F)F)c1` (stereo unspecified): the viability, T/C (compound 0.0316 µM) was 82.8% and 73.3%; the viability, T/C (compound 0.1 µM) was 78.5% and 59.6%; the viability, T/C (compound 0.316 µM) was 50.1% and 53.2%; the viability, T/C (compound 1 µM) is 49.3% and 48%; the viability, T/C (compound 3.16 µM) was 44% and 47.7%; the viability, T/C (compound 10 µM) is 15.2% and 14.2%. Further, the IC50 (curve of compound) is 849 nM and 1070 nM.
Consider `CC(C)n1nc(-c2ccc3oc(N)nc3c2)c2c(N)ncnc21` + CC(C)NCC(C(=O)N1CCN(c2ncnc3c2C(C)CC3O)CC1)c1ccc(Cl)cc1, for which the IC50 under setting [1] was 1.3 nM; the IC50 under setting [2] was below 0.316 nM; the half-inhibitory concentration (IC50) under setting [3] was below 0.316 nM; the 50% inhibitory concentration (IC50) under setting [4] was below 0.316 nM; the IC50 under setting [5] was below 0.316 nM. Further, the viability, T/C is 63% (second compound 0.1 µM, first compound 0.000316 µM); 52.6% (second compound 0.1 µM, first compound 0.001 µM); 38.1% (second compound 0.1 µM, first compound 0.00316 µM); 20.2% (second compound 0.1 µM, first compound 0.01 µM); 10.4% under setting [6]; 10% under setting [7]. Besides, the viability, T/C runs as follows: (second compound 0.316 µM, first compound 0.000316 µM) 37.3%; (second compound 0.316 µM, first compound 0.001 µM) 32.8%; (second compound 0.316 µM, first compound 0.00316 µM) 18.4%; (second compound 0.316 µM, first compound 0.01 µM) 11.8%; under setting [8], 7.3%; under setting [9], 6.67%. The viability, T/C (second compound 1 µM, first compound 0.000316 µM) is 20%; the viability, T/C (second compound 1 µM, first compound 0.001 µM) was 14.8%; the viability, T/C (second compound 1 µM, first compound 0.00316 µM) was 9.96%; the viability, T/C (second compound 1 µM, first compound 0.01 µM) is 7.81%; the viability, T/C under setting [10] was 5.46%; the viability, T/C under setting [11] is 4.64%. Besides, the viability, T/C (second compound 3.16 µM, first compound 0.000316 µM) is 12%; the viability, T/C (second compound 3.16 µM, first compound 0.001 µM) is 10.3%; the viability, T/C (second compound 3.16 µM, first compound 0.00316 µM) was 8.27%; the viability, T/C (second compound 3.16 µM, first compound 0.01 µM) is 5.41%; the viability, T/C under setting [12] is 3.69%; the viability, T/C under setting [13] is 4.13%. For the same compound, the viability, T/C by setting is: (second compound 10 µM, first compound 0.000316 µM) 12%; (second compound 10 µM, first compound 0.001 µM) 10.2%; (second compound 10 µM, first compound 0.00316 µM) 7.33%; (second compound 10 µM, first compound 0.01 µM) 3.83%; under setting [14], 2.74%; under setting [15], 2.74%.
Take `Cn1nccc1Nc1nccc(-c2ccn(C(CO)c3ccc(Cl)c(F)c3)c(=O)c2)n1` (stereo unspecified) + CCN1CCN(Cc2ccc(Nc3ncc(F)c(-c4cc(F)c5nc(C)n(C(C)C)c5c4)n3)nc2)CC1: the IC50 reads like this: (curve of first compound, second compound 0.01 µM) above 10000 nM; (curve of first compound, second compound 0.0316 µM) above 10000 nM; under setting [1], above 10000 nM; under setting [2], above 10000 nM; under setting [3], above 10000 nM. Also, the viability, T/C was 87.1% (second compound 0.01 µM, first compound 0.0316 µM); 78.3% (second compound 0.01 µM, first compound 0.1 µM); 97.1% (second compound 0.01 µM, first compound 0.316 µM); 114% (second compound 0.01 µM, first compound 1 µM); 127% (second compound 0.01 µM, first compound 3.16 µM); 93.8% (second compound 0.01 µM, first compound 10 µM). Further, the viability, T/C is 59.1% (second compound 0.0316 µM, first compound 0.0316 µM); 58% (second compound 0.0316 µM, first compound 0.1 µM); 66.1% (second compound 0.0316 µM, first compound 0.316 µM); 76.6% (second compound 0.0316 µM, first compound 1 µM); 115% (second compound 0.0316 µM, first compound 3.16 µM); 39.8% (second compound 0.0316 µM, first compound 10 µM). In addition, the viability, T/C runs as follows: under setting [6], 54.4%; under setting [7], 52.1%; under setting [16], 55.6%; under setting [17], 64.8%; under setting [18], 87.7%; under setting [19], 47.2%. The viability, T/C under setting [8] is 52.4%; the viability, T/C under setting [9] was 68.5%; the viability, T/C under setting [20] is 64.7%; the viability, T/C under setting [21] was 65.4%; the viability, T/C under setting [22] was 72.9%; the viability, T/C under setting [23] was 54.3%. Besides, the viability, T/C under setting [10] was 62.4%; the viability, T/C under setting [11] is 57.1%; the viability, T/C under setting [24] was 61.2%; the viability, T/C under setting [25] is 63.2%; the viability, T/C under setting [26] was 92%; the viability, T/C under setting [27] is 51.5%.
`Cn1ncnc1[C@H]1c2n[nH]c(=O)c3cc(F)cc(c23)N[C@@H]1c1ccc(F)cc1`: the viability, T/C is 96.7% and 95.8% (compound 0.000316 µM); 87.8% and 95.3% (compound 0.001 µM); 74.8% and 63% (compound 0.00316 µM); 53.3% and 58.5% (compound 0.01 µM); 43.7% and 50.4% (compound 0.0316 µM); 43.8% and 39% (compound 0.1 µM). Also, where the note is “curve of compound”, the concentration for half-maximal inhibition (IC50) is 16.3 nM and 19.1 nM.
`C=CC(=O)N1CCN(c2nc(=O)n(-c3c(C)ccnc3C(C)C)c3nc(-c4c(O)cccc4F)c(F)cc23)C(C)C1` (stereo unspecified) + CC(C)NCC(C(=O)N1CCN(c2ncnc3c2C(C)CC3O)CC1)c1ccc(Cl)cc1: the IC50 was above 10000 nM under setting [1]; below 31.6 nM under setting [2]; below 31.6 nM under setting [3]; below 31.6 nM under setting [4]; below 31.6 nM under setting [5]. The viability, T/C was 82% under setting [6]; 73.5% under setting [7]; 72.8% under setting [16]; 83.6% under setting [17]; 99.1% under setting [18]; 87.2% under setting [19]. The viability, T/C is 44.4% under setting [8]; 44.4% under setting [9]; 43.7% under setting [20]; 34.7% under setting [21]; 41.7% under setting [22]; 43.1% under setting [23]. For the same compound, the viability, T/C by setting is: under setting [10], 26.5%; under setting [11], 27.1%; under setting [24], 27%; under setting [25], 25.8%; under setting [26], 26.3%; under setting [27], 23.2%. In addition, the viability, T/C runs as follows: under setting [12], 15.1%; under setting [13], 15%; (second compound 3.16 µM, first compound 0.316 µM) 15.5%; (second compound 3.16 µM, first compound 1 µM) 15.6%; (second compound 3.16 µM, first compound 3.16 µM) 17.1%; (second compound 3.16 µM, first compound 10 µM) 13.1%. Besides, the viability, T/C runs as follows: under setting [14], 14.6%; under setting [15], 13.7%; (second compound 10 µM, first compound 0.316 µM) 13.4%; (second compound 10 µM, first compound 1 µM) 14%; (second compound 10 µM, first compound 3.16 µM) 14.5%; (second compound 10 µM, first compound 10 µM) 7.96%.
